Here are results for 15 compounds from patent US9809604B2, “DGAT1 inhibitor and preparation method and use thereof” (Qingdao Huanghai Pharmaceutical Co., Ltd., priority 2013, dated 2017).

Structures are written as SMILES. Read-outs that look alike come from different tables or passages of the source.

The target in series [1] is T1, DGAT1 (Homo sapiens, UniProt O75907).
T1 sequence (O75907 1-488): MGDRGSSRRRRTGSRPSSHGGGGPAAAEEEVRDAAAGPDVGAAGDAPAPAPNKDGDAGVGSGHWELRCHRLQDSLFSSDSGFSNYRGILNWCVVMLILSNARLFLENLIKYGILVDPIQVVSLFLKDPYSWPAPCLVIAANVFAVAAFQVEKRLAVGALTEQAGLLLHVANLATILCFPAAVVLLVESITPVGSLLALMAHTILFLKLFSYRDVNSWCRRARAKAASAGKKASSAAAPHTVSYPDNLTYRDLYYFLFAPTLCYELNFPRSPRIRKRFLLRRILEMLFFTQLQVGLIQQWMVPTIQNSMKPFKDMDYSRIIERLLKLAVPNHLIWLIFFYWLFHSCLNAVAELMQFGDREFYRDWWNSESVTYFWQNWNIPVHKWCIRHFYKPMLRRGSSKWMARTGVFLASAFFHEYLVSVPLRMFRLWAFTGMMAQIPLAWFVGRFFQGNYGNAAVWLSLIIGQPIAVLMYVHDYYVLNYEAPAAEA
Description: Human DGAT1 IC50 enzyme assay (Flashplate, 14C-labeled acyl-CoA). The class given is biochemical. The arrangement: made in house. How it is done:
The ability of compounds to inhibit DGAT enzyme activity is determined by calculating IC50 values of test compounds. Ki values of DGAT1 are calculated as follows: Cheng-Prusoff equation: Ki=IC50/(1+[S]/Km)
(1) Human DGAT1 IC50 (nM) Experiment
Human DGAT1 activity was determined as follows:
Expressing human DGAT1 enzyme, used diacylglycerol and 14C-labeled acyl-CoA as the substrate, choose PE Company Flashplate testing board to build DGAT1 enzyme reaction system. 14C-labeled acyl-CoA binds to diacylglycerol by covalent bonding after enzymology reaction, and generates the product of 14C-labeled triglyceride. 14C-labeled acyl-CoA substrate is dissolved in reaction solution and 14C-labeled triglyceride product combine with phospholipids of Flashplate plate bottom layer, thus effectively separate labeled substrates and products. The radioactive of 14C-labeled triglyceride which is combined with phospholipid layer is counted, and the potencies of DGAT-1 inhibition for the compounds are determined by calculating the IC50 values.

Series [2] in a line: Plasma pharmacokinetics in male SD rats. The class given is in vivo. As to conditions: male, SD, plasma, rat. The protocol:
(3) Pharmacokinetics of Test Compounds
The purpose of this study is to determine the plasma pharmacokinetics of male SD rats. Two animals will receive a solution of test article in vehicle by single intravenous bolus via tail vein; the dosage is 2 mg/kg. Blood samples are taken at specified time points (0, 0.0833, 0.25, 0.5, 1, 2, 4, 7, 24 h) after dosing. Another two animals will receive a solution or suspension of TA in vehicle by oral gavage at 10 mg/kg. The schedule for sample collection is 0.5, 1, 2, 3, 4, 6, 24 h after dosing. A LC/MS/MS method is used to measure the concentration of test compound in plasma. Non-compartmental pharmacokinetic analysis is performed on the plasma concentration-time data. PK parameters of calculations are done using Phoenix WinNonlin. 6.2.1 software program.

Setting [3] is: average of first and second, read-out: hDGAT1 IC50(nM) Average.
Setting [4] is: first determination, read-out: hDGAT1 IC50(nM) First.
The mark [5] stands for this setting: second determination, read-out: hDGAT1 IC50(nM) Second.

As usually defined, the IC50 is the concentration needed to halve the response being measured. `Cc1nn(CCC(=O)O)cc1-c1ccc(N2CCOc3ncnc(N)c3C2=O)cc1Cl` [Compound 78, 3-(4-(4-(4-amino-5-oxo-7,8-dihydropyrimido [5,4-f][1,4]oxazepin-6(5H)-yl)-2-chlorophenyl)-3-methyl-1H-pyrazol-1-yl)propanoic acid]: the IC50 in series [1] (setting [3]) was found to be 54.8 nM; in series [1] (setting [4]), 69.2 nM; in series [1] (setting [5]) it was 40.3 nM.

As to `CCn1cc(-c2ccc(N3CCOc4ncnc(N)c4C3=O)cc2Cl)cn1` [Compound 79, 4-amino-6-(3-chloro-4-(1-ethyl-1H-pyrazol-4-yl)phenyl)-7,8-dihydropyrimido [5,4-f][1,4]oxazepin-5(6H)-one], the IC50 in series [1] (setting [3]) came to 52.1 nM; in series [1] (setting [4]) it was 46.4 nM; in series [1] (setting [5]) it was 57.8 nM.

Consider `Cc1cc(N2CCOc3ncnc(N)c3C2=O)cc(C)c1-c1cn(CCC(=O)O)nc1C` [Compound 83, 3-(4-(4-(4-amino-5-oxo-7,8-dihydropyrimido [5,4-f][1,4]oxazepin-6(5H)-yl)-2,6-dimethylphenyl)-3-methyl-1H-pyrazol-1-yl)propanoic acid], for which the results for the IC50 in series [1] (setting [3]), in series [1] (setting [4]) and in series [1] (setting [5]) were 45.6 nM, 52.8 nM and 38.4 nM, respectively.

As for `CC(C)(Cn1cc(-c2ccc(N3CCOc4ncnc(N)c4C3=O)cc2Cl)cn1)C(=O)N1CCCC1` [Compound 85], the IC50 in series [1] (setting [3]) was determined as 61.7 nM; in series [1] (setting [4]) it was 59.6 nM; in series [1] (setting [5]), 63.7 nM.

Regarding `Nc1ncnc2c1C(=O)N(c1ccc(-c3cnn(CC4CC4)c3)c(Cl)c1)CCO2` [Compound 87, 4-amino-6-(3-chloro-4-(1-(cyclopropylmethyl)-1H-pyrazol-4-yl)phenyl)-7,8-dihydropyrimido[5,4-f][1,4]oxazepin-5(6H)-one], the IC50 in series [1] (setting [3]) amounted to 46.7 nM; in series [1] (setting [4]), 49.3 nM; in series [1] (setting [5]) it was 44.2 nM.

With `CC(C)(C)Cn1cc(-c2ccc(N3CCOc4ncnc(N)c4C3=O)cc2Cl)cn1` [Compound 88], the IC50 amounted to 25.7 nM in series [1] (setting [3]), 27 nM in series [1] (setting [4]) and 24.4 nM in series [1] (setting [5]).

On to `CN(C)C(=O)C(C)(C)Cn1cc(-c2ccc(N3CCOc4ncnc(N)c4C3=O)cc2Cl)cn1` [Compound 89, 3-(4-(4-(4-amino-5-oxo-7,8-dihydropyrimido [5,4-f][1,4]oxazepin-6(5H)-yl)-2-chlorophenyl)-1H-pyrazol-1-yl)-N,N,2,2-tetramethylpropanamide], for which the values for the IC50 in series [1] (setting [3]), in series [1] (setting [4]) and in series [1] (setting [5]) were 80.7 nM, 71.2 nM and 90.1 nM, respectively.

As to `CCc1cc(N2CCOc3ncnc(N)c3C2=O)ccc1-c1cnn(CC(C)C)c1` [Compound 90, 4-amino-6-(3-ethyl-4-(1-isobutyl-1H-pyrazol-4-yl)phenyl)-7,8-dihydropyrimido [5,4-f][1,4]oxazepin-5(6H)-one], the IC50 in series [1] (setting [3]) turned out to be 60 nM; in series [1] (setting [4]), 62 nM; in series [1] (setting [5]), 58 nM.

Regarding `CC(C)(F)Cn1cc(-c2ccc(N3CCOc4ncnc(N)c4C3=O)cc2Cl)cn1` [Compound 91, 4-amino-6-(3-chloro-4-(1-(2-fluoro-2-methylpropyl)-1H-pyrazol-4-yl)phenyl)-7,8-dihydropyrimido[5,4-f][1,4]oxazepin-5(6H)-one], the values for the IC50 in series [1] (setting [3]), in series [1] (setting [4]) and in series [1] (setting [5]) were 20 nM, 12.5 nM and 27.5 nM, respectively.

On to `Cc1cc(N2CCOc3ncnc(N)c3C2=O)cc(C)c1-c1c(C)nn(CC(F)(F)F)c1C` [Compound 93, 4-amino-6-(4-(3,5-dimethyl-1-(2,2,2-trifluoroethyl)-1H-pyrazol-4-yl)-3,5-dimethylphenyl)-7,8-dihydropyrimido[5,4-f][1,4]oxazepin-5(6H)-one], for which the IC50 in series [1] (setting [3]) turned out to be 69.4 nM; in series [1] (setting [4]) it was 64.5 nM; in series [1] (setting [5]), 74.2 nM.

For the compound `COC(C)(C)Cn1cc(-c2ccc(N3CCOc4ncnc(N)c4C3=O)cc2Cl)cn1` [Compound 94, 4-amino-6-(3-chloro-4-(1-(2-methoxy-2-methylpropyl)-1H-pyrazol-4-yl)phenyl)-7,8-dihydropyrimido[5,4-f][1,4]oxazepin-5(6H)-one], the results for the IC50 in series [1] (setting [3]), in series [1] (setting [4]) and in series [1] (setting [5]) were 59.1 nM, 63.1 nM and 55.1 nM, respectively.

On to `CC(C)(F)Cn1ccc(-c2ccc(N3CCOc4ncnc(N)c4C3=O)cc2Cl)n1` [Compound 95, 4-amino-6-(3-chloro-4-(1-(2-fluoro-2-methylpropyl)-1H-pyrazol-3-yl)phenyl)-7,8-dihydropyrimido[5,4-f][1,4]oxazepin-5(6H)-one], for which the IC50 in series [1] (setting [3]) amounted to 42.5 nM; in series [1] (setting [4]), 32.2 nM; in series [1] (setting [5]), 52.9 nM.

On to `CC(C)Cn1cc(-c2ccc(N3C(=O)c4c(N)ncnc4OC[C@H]3C)cc2Cl)cn1` [Compound 96, (R)-4-amino-6-(3-chloro-4-(1-isobutyl-1H-pyrazol-4-yl)phenyl)-7-methyl-7,8-dihydropyrimido[5,4-f][1,4] oxazepin-5-(6H)-one], for which the 50% inhibitory concentration (IC50) in series [1] (setting [3]) was 70.5 nM; in series [1] (setting [4]), 69.4 nM; in series [1] (setting [5]), 71.7 nM.

For `Cc1cc(N2CCOc3ncnc(N)c3C2=O)cc(C)c1-c1cn(CC(C)(C)F)nc1C` [Compound 97, 4-amino-6-(4-(1-(2-fluoro-2-methylpropyl)-3-methyl-1H-pyrazol-4-yl)-3,5-dimethylphenyl)-7,8-dihydropyrimido[5,4-f][1,4]oxazepin-5(6H)-one], the values for the IC50 in series [1] (setting [3]), in series [1] (setting [4]) and in series [1] (setting [5]) were 26.9 nM, 30.3 nM and 23.4 nM, respectively.

Turning to `Nc1ncnc2c1C(=O)N(c1ccc([C@H]3CC[C@H](CC(=O)O)CC3)cc1)CCO2` [PF-04620110, reference compound], the AUC(0-t) in series [2] (iv, 1.78-2.06 mg/kg as printed in each cell, read-out: AUC0-1 (ng · n/mL)) stood at 2920 ng·h/mL. In series [2] (oral, 10 mg/kg), the bioavailability is 109%.
